Several values for one entry are separate records, joined by “and”; a condition that tells them apart may be missing. Equal values may be shown once.
Assays:
[1] = tested on: white blood cell; assay: WBC counts in blood of EAE animals; assay type: in vivo, Macaca fascicularis; settings: individual animals
Source text: The hematologic hallmarks of untreated EAE are a progressive leukocytosis and lymphopenia prior to the onset of clinical signs. The leukocytosis can represent as much as a four-fold increase in the number of circulating PMNC and no significant changes in the frequency or absolute numbers of monocytes, eosinophils, or basophils. Following successful treatments of EAE, the absolute numbers of lymphocytes and PMNC return, fairly soon after the initiation of treatment, to pre-sensitization levels. Thus, continuous monitoring of blood leukocytes provides a useful measure of disease progression which complements the clinical evaluation and magnetic resonance imaging.
Blood was drawn on a weekly basis until the onset of clinical disease and then more frequently. One-half ml was sent to the hematology laboratory for WBC and differential counts. The results are set out in Table 3 below providing white blood cell number (×10^3) per mm^3 whole blood.
Two Macaca fascicularis monkeys were then involved in a study to preliminarily determine the ability of mAb 23F2G to alleviate EAE symptoms. The EAE induction procedures were essentially as in Example 1. Two animals, Nos. 89161 and 89186, sensitized to 1.0 mg of purified monkey basic protein and developed hyperacute hemorrhagic EAE 18 and 20 days post sensitization, respectively. Animal 89161 died within 12 hours of onset and before treatment with dexamethasone could be initiated. Animal 89186 was treated for a week with both dexamethasone (3 days at 4 mg/kg, 2 days at 2 mg/kg and 2 days at 1 mg/kg) and mAb 23F2G (7 days at 2 mg/kg, i.v.). The animal improved dramatically with complete resolution of paralysis three days after initiation of treatment. Lesions detected by MRI resolved four days after cessation of treatment and the animal improved dramatically with complete resolution of paralysis. Eight days following cessation of treatment, the animal relapsed and was sacrificed. […] The white blood cell count rose from 22.7×10^3 on the day of clinical onset to 82×10^3 /mm^3 on the last day of treatment.

[2] = tested on: Experimental Allergic Encephalomyelitis (EAE); assay: EAE in macaques: clinical evaluation and survival; assay type: in vivo, Macaca fascicularis
Method: Eighteen male monkeys Macaca fascicularis weighing 2-3 kg were sensitized to myelin basic protein (BP) by the intra dermal injection of 0.1 ml of an emulsion containing 5.0 mg of monkey BP and 0.5 mg of heat-killed M. tuberculosis. Each animal was obtained and housed by the Regional Primate Research Center at the University of Washington, Seattle. The Primate Center conforms to the National Institutes of Health Guide for the Care and Use of laboratory Animals. Ten days after sensitization to BP, each animal was outfitted with a femoral catheter and tether to facilitate blood sampling and the administration of treatments or anesthetics for magnetic resonance imaging (MRI). The animals were maintained on intravenous heparin (18 units/hour) to prevent blood clots from forming in the intra venous lines.
The animals were randomly admitted to specific treatment groups before they were sensitized to BP. This was done to schedule MRI and to prevent the severity of clinical signs at the onset from influencing the choice of therapy. Primate Center personnel, responsible for deciding when animals should be treated or sacrificed, were blinded regarding the treatment history of each animal. Table 1 below provides a statement of criteria for determination of clinical signs and grades of EAE in the animals.
At the onset of definite clinical signs (± to +) six EAE animals received a bolus injection of mAb 60.3 (2 mg/kg) and dexamethasone (4 mg/kg). […]. Sever acute EAE occurs in approximately 25 % of animals induced to develop EAE and is caused by edema in areas involving or impinging upon the brain stem or cerebral cortex. Following injection of the bolus, these six animals were treated by continuous infusion of mAb 60.3 (2 mg/kg/day) for seven days. […]. Six control EAE animals were treated only with dexamethasone, following the same protocol outlined above, and six additional controls were treated with continuous infusion of saline.
Animals that improved and/or stabilized as a result of therapy were sacrificed six weeks after the onset of clinical signs. Animals that experienced a clinical relapse (clinical signs ≧++) some time after the cessation of treatment and before six weeks had elapsed, were sacrificed shortly after the onset of the relapse. […] The statistical significance of differences in survival times in each treatment group was determined by two-tailed Student t analysis.
Disease progression was monitored by a combination of clinical evaluation, blood analysis and magnetic resonance imaging. Clinical evaluations were performed twice daily. […]

C[C@@H]1C[C@H]2[C@@H]3CCC4=CC(=O)C=C[C@]4(C)[C@@]3(F)[C@@H](O)C[C@]2(C)[C@@]1(O)C(=O)CO [dexamethasone]
white blood cell number ([1]; Day 2): 3.1 ×10^3 per mm^3 whole blood and 5.4 ×10^3 per mm^3 whole blood | white blood cell number ([1]; Day 4): 3.7 ×10^3 per mm^3 whole blood and 3.6 ×10^3 per mm^3 whole blood | white blood cell number ([1]; Day 7 (end of treatment)): 3.8 ×10^3 per mm^3 whole blood and 7.0 ×10^3 per mm^3 whole blood | white blood cell number ([1]; Day 10): 8.7 ×10^3 per mm^3 whole blood and 10.7 ×10^3 per mm^3 whole blood | white blood cell number ([1]; Day 14): 7.9 ×10^3 per mm^3 whole blood | white blood cell number ([1]; Onset of clinical signs (start of treatment)): 9.6 ×10^3 per mm^3 whole blood and 9.0 ×10^3 per mm^3 whole blood and 14.6 ×10^3 per mm^3 whole blood and 32.2 ×10^3 per mm^3 whole blood and 12.4 ×10^3 per mm^3 whole blood and 16.3 ×10^3 per mm^3 whole blood | white blood cell number ([1]; Presens (baseline before sensitization)): 4.7 ×10^3 per mm^3 whole blood and 6.1 ×10^3 per mm^3 whole blood and 6.7 ×10^3 per mm^3 whole blood and 13.5 ×10^3 per mm^3 whole blood and 8.9 ×10^3 per mm^3 whole blood and 14.1 ×10^3 per mm^3 whole blood | mean survival time ([2]; after onset, group of six EAE macaques): 7 days | survival after onset (range of group) ([2]; group of six EAE macaques): 1 to 17 days | Grade (severity of clinical signs at time of sacrifice) ([2]; individual EAE macaques, 7-day treatment from onset of clinical signs, listed as dex alone): ++ | Survival (days of survival post-onset) ([2]; individual EAE macaques, 7-day treatment from onset of clinical signs, stable animals sacrificed at six weeks (42 days), listed as dex alone): 17 days and 1 days (2×) and 2 days and 13 days and 9 days

Reference: patent publication US6737059B1, “Methods of inhibiting inflammatory processes and alleviating symptoms associated with multiple sclerosis” (Board of Regents of the University Washington, priority 1992, dated 2004)
